Test results from patent publication US5162336A, “Tetrahydro-pyrido-indoles as cholecystokinin and gastrin antagonists” (Rhone-Poulenc Rorer Pharmaceuticals Inc., priority 1990, dated 1992).

What follows are compounds tested against T1, Gastrin receptor (Cavia porcellus, UniProt H0VZC5) (assay: Gastrin receptor binding assay (displacement of 125I-(Leu-15)-Gastrin from guinea pig fundic glands)). Settings: guinea pig fundic mucosa glands, 25° C., 30 min, read-out: In vitro Binding Data IC50 Gastrin.
T1 construct: The fundic mucosa is gently scraped off the submucosa; from tissue; host or cells: gastric glands from fundic mucosa of Hartley guinea pig
T1 sequence (H0VZC5 1-426): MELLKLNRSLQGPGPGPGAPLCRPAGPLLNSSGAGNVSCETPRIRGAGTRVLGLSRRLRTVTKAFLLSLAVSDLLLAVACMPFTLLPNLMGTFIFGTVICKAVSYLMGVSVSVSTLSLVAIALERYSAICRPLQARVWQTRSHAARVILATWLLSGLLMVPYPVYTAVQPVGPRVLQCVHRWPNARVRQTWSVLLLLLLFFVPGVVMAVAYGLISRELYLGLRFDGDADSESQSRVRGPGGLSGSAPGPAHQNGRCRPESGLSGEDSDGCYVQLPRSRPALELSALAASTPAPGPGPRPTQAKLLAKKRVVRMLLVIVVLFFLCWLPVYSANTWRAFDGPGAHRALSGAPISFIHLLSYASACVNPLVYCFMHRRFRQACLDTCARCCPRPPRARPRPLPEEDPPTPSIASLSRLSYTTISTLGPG
Parameters: species or system guinea pig (Hartley Strain)
Experimental: (a) Phosphate Buffered Saline (PBS): 8.743 g NaCl, 523 mg K2 HPO4 and 76.8 mg NaH2 PO4 is dissolved in 1.0 liter of deionized water and the pH of the solution is adjusted to 7.3 with 5N NaOH.
(b) Buffer A: While adding Basal Medium Eagle (BME) containing Earle's Salts, L-glutamine and 25 mM HEPES, 3 liters of deionized water is stirred, followed by the addition and dissolution of […] of sodium bicarbonate. The solution is then equilibrated with 95% O2 /5% CO2 gas followed by titration to a pH of 7.4 with NaOH.
(c) Buffer B: 18.75 mg of collagenase and […] of BSA is dissolved in 25 ml of Buffer A.
(d) Buffer C: 0.3 g of BSA is dissolved in 300 ml of Buffer A.
(e) 6.25 mg Bacitracin is dissolved in 25 ml of Buffer A.
(f) ^125 I-(Leu-15)-Gastrin: 100 microcurie dissolved in 2.0 ml of Buffer A to make 50 microcurie/ml.
(g) ^125 I-(15-methionine)-Human Gastrin: 50 microcurie/ml.
(h) (Leu 15)-Gastrin: 5.2 mg of (Leu-15)- Gastrin is dissolved in 10 ml of Buffer A. At the time of assay 1:10 dilution is made and 10 μl assay tube is used.
A guinea pig (Hartley Strain) weighing 150-200 grams, is sacrificed by CO2 asphyxiation and the stomach immediately excised, cut along the greater curvature, cleaned out and immediately immersed in a beaker containing cold PBS, pH 7.3, to insure thorough cleaning. The fundic mucosa is gently scraped off the submucosa and added to a preweighed 50 ml plastic centrifuge tube containing 30 ml of cold Buffer A. The weight of the plastic centrifuge tube containing the buffer is then subtracted from the combined weight of the mucosa and the buffer-containing tube to give the weight of the mucosa. The weight of the mucosa thus determined is recorded for later calculations.
The mucosa is then washed twice in Buffer A. After the final wash, the tissue is minced and is placed in a 100-ml glass beaker containing about 1.0 ml of Buffer A, and washed twice again by repeated centrifugation at 50×g for 5 minutes each and aspiration of supernatant. The washed tissue fragments are then added to a glass Erlenmeyer flask containing 25 ml of Buffer B and incubated in a Dubnoff shaking water bath at 37° C. for 30 minutes in a 95% O2 - 5% CO2 atmosphere. After the incubation, the digested tissue fragments in the Collegenase-buffer solution are triturated, filtered through a 200-micron nylon mesh and centrifuged at 50×g for 5 minutes. The supernatant is aspirated and discarded, the tissue washed 2× in Buffer C, resuspended in same buffer, incubated in a 37° C. water bath in an atmosphere of 95% O2 - 5% CO2 for 5 minutes, and centrifuged. The pelleted glands are suspended in Buffer D at a desired concentration of 2x10^5 glands/ml to use in the receptor binding assay.
Six minisorp tubes (16×100 mm) are serially marked and divided into two groups thus: tubes #1, #2, and #3 are marked "T" for "Totals" and tubes #4, #5, and #6 are marked "NS" for "Non-Specifics." Into each of the six tubes are added 220 μl of prepared glands in Buffer D; 20 μl of Buffer A in tubes #1, #2, and #3; 10 μl, in tubes #4, #5 and #6; (10μ of (Leu-15)-Gastrin (25 μM) in tubes #4, #5, and #6. The six tubes are then transferred immediately to a 25° C. water bath and challenged each with 10 μl ^125 I-(Leu-15)-Gastrin diluted as per calculation. The tubes are then covered with a gas hood connected to a 95% O2 - 5% CO2 gas source and mechanically agitated in a shaker for 30 minutes.
At the end of the incubation period, the assay mixtures are each filtered through a Whatman glass fiber filter B on a Brandel tissue harvester and washed twice with Buffer A. The filters are pre-soaked in Buffer C before use. The filter strips are removed after the final wash and individual filters counted in a Gamma Counter. The counts from the "Non-Specific" tubes are then averaged and subtracted from the average "Totals" to give the Specific Counts. […]
`CC(C)C[C@H](NC(=O)[C@H]1Cc2c([nH]c3ccccc23)CN1)C(=O)N[C@@H](CC(=O)O)C(N)=O` [Example 1, N-[(3R)-1,2,3,4-tetrahydro-9H-pyrido[3,4-b]indole-3-carboxyl]-L-leucyl-L-aspartic acid amide] showed an IC50 of 12 µM. With `CC(C)C[C@H](NC(=O)[C@@H]1Cc2c([nH]c3ccccc23)CN1)C(=O)N[C@@H](CC(=O)O)C(N)=O` [Example 2, N-[(3S)-1,2,3,4-tetrahydro-9H-pyrido[3,4-b]indole-3-carboxyl]-L-leucyl-L-aspartic acid amide] the IC50 was 60 µM. For `NC(=O)[C@H](CC(=O)O)NC(=O)[C@H]1Cc2c([nH]c3ccccc23)CN1` [Example 3, N-[(3R)-1,2,3,4-tetrahydro-9H-pyrido[3,4-b]-indole-3-carboxyl]-L-aspartic acid amide], the IC50 was greater than 300 µM. With `NC(=O)[C@H](CC(=O)O)NC(=O)[C@@H]1Cc2c([nH]c3ccccc23)CN1` [Example 4, N-[(3S)-1,2,3,4-tetrahydro-9H-pyrido[3,4-b]indole-3-carboxyl]-L-aspartic amide] the IC50 was greater than 300 µM. Compound `O=C(NCC(c1ccccc1)c1ccccc1)[C@H]1Cc2c([nH]c3ccccc23)CN1` [Example 5, (3R)-3-(2,2'-diphenyl)ethylcarbamoyl-1,2,3,4-tetrahydro-9H-pyrido[3,4-b]indole] has an IC50 of 59 µM. `O=C(NC(c1ccccc1)c1ccccc1)[C@H]1Cc2c([nH]c3ccccc23)CN1` [Example 6, (3R)-3-diphenylmethylcarbamoyl-1,2,3,4-tetrahydro-9H-pyrido[3,4-b]indole] showed an IC50 of 60 µM. Work on `NC(=O)[C@H](CC(=O)O)NC(=O)[C@H]1Cc2c([nH]c3ccccc23)CN1C(=O)c1ccccc1` [Example 8, N-[(3R)-2-benzoyl-1,2,3,4-tetrahydro-9H-pyrido[3,4-b]indole-3-carboxyl]-L-aspartic acid amide] yielded an IC50 of 78 µM. In the case of `CC(C)C[C@H](NC(=O)[C@H]1Cc2c([nH]c3ccccc23)CN1C(=O)c1ccccc1)C(=O)N[C@@H](CC(=O)O)C(N)=O` [Example 9, N-[(3R)-2-benzoyl-1,2,3,4-tetrahydro-9H-pyrido[3,4-b]indole-3-carboxyl]-L-leucyl-L-aspartic acid amide], the IC50 is reported as 25 µM. With `CC(C)C[C@H](NC(=O)[C@H]1Cc2c([nH]c3ccccc23)CN1C(=O)c1ccc2ccccc2c1)C(=O)N[C@@H](CC(=O)O)C(N)=O` [Example 10, N-[(3R)-2-(2-naphthoyl)-1,2,3,4-tetrahydro-9H-pyrido[3,4-b]indole-3-carboxyl]-L-leucyl-L-aspartic acid amide] the IC50 was 15 µM. Work on `Cc1cccc(NC(=O)N2Cc3[nH]c4ccccc4c3C[C@@H]2C(=O)N[C@@H](CC(C)C)C(=O)N[C@@H](CC(=O)O)C(N)=O)c1` [Example 11, N-[(3R)-2-(3-methylphenylcarbamoyl)-1,2,3,4-tetrahydro-9H-pyrido[3,4-b]indole-3-carboxyl]-L-leucyl-L-aspartic acid amide] yielded an IC50 of 4 µM. In the case of `Cc1cccc(NC(=O)N2Cc3[nH]c4ccccc4c3C[C@H]2C(=O)N[C@@H](CC(C)C)C(=O)N[C@@H](CC(=O)O)C(N)=O)c1` [Example 12, N-[(3S)-2-(3-methylphenylcarbamoyl)-1,2,3,4-tetrahydro-9H-pyrido[3,4-b]indole-3-carboxyl]-L-leucyl-L-aspartic acid amide], the IC50 is reported as 29 µM. `CCCCCN(CCCCC)C(=O)[C@H]1Cc2c([nH]c3ccccc23)CN1C(=O)Nc1cccc(C)c1` [Example 13, (3R)-3-(N,N-dipentylcarbamoyl)-2-(3-methylphenylcarbamoyl)-1,2,3,4-tetrahydro-9H-pyrido[3,4-b]indole] was tested, and the IC50 was greater than 300 µM. For `CC(C)C[C@H](NC(=O)[C@H]1Cc2c([nH]c3ccccc23)CN1C(=O)Nc1ccccc1)C(=O)N[C@@H](CC(=O)O)C(N)=O` [Example 14, N-[(3R)-2-phenylcarbamoyl-1,2,3,4-tetrahydro-9H-pyrido[3,4-b]indole-3-carboxyl]-L-leucyl-L-aspartic acid amide], the IC50 was 5.5 µM. `CCOC(=O)c1ccc(NC(=O)[C@H]2Cc3c([nH]c4ccccc34)CN2C(=O)OCc2ccccc2)cc1` [Example 15, ethyl 4-N-[(3R)-2-carbobenzoxy-1,2,3,4-tetrahydro-9H-pyrido[3,4-b]indole-3-carboxyl]aminobenzoate] gave an IC50 of 10 µM. `CCOC(=O)c1cccc(NC(=O)[C@H]2Cc3c([nH]c4ccccc34)CN2C(=O)OCc2ccccc2)c1` [Example 16, ethyl 3-N-[(3R)-2-carbobenzoxy-1,2,3,4-tetrahydro-9H-pyrido[3,4-b]indole-3-carboxyl]aminobenzoate] was tested, and the IC50 was greater than 300 µM. For `CCOC(=O)c1ccccc1NC(=O)[C@H]1Cc2c([nH]c3ccccc23)CN1C(=O)OCc1ccccc1` [Example 17], the IC50 was 100 µM. `O=C(Nc1ccccc1C(=O)N1CCCC1)[C@H]1Cc2c([nH]c3ccccc23)CN1C(=O)OCc1ccccc1` [Example 18, pyrrolidine-2-N-[(3R)-2-carbobenzoxy-1,2,3,4-tetrahydro-9H-pyrido-[3,4-b]indole-3-carboxyl]aminobenzamide] was tested, and the IC50 was 55 µM. `O=C(Nc1ccccc1C(=O)N1CCCC1)[C@@H]1Cc2c([nH]c3ccccc23)CN1C(=O)OCc1ccccc1` [Example 19, pyrrolidine-2-N-[(3S)-2-carbobenzoxy-1,2,3,4-tetrahydro-9H-pyrido[3,4-b]indole-3-carboxyl]aminobenzamide] showed an IC50 of 8 µM. With `O=C(Nc1ccccc1C(=O)N1CCCC1)[C@H]1Cc2c([nH]c3ccccc23)CN1C(=O)c1ccc2ccccc2c1` [Example 20, pyrrolidine-2-N-[(3R)-2-(2-naphthoyl)-1,2,3,4-tetrahydro-9H-pyrido[3,4-b]indole-3-carboxyl]aminobenzamide] the IC50 was 80 µM. `CCCCN(CCCC)C(=O)c1ccccc1NC(=O)[C@H]1Cc2c([nH]c3ccccc23)CN1C(=O)OCc1ccccc1` [Example 22] gave an IC50 greater than 300 µM. `CCOC(=O)c1ccccc1NC(=O)[C@@H]1Cc2c([nH]c3ccccc23)CN1C(=O)OCc1ccccc1` [Example 23, ethyl 2-N-[(3S)-2-carbobenzoxy-1,2,3,4-tetrahydro-9H-pyrido[3,4-b]indole-3-carboxyl]aminobenzoate] was tested, and the IC50 was greater than 300 µM. With `CC[C@H](C)[C@H](NC(=O)[C@H]1Cc2c([nH]c3ccccc23)CN1C(=O)Nc1ccc(Cl)c(Cl)c1)C(=O)N[C@@H](CC(=O)O)C(N)=O` [Example 24, N-[(3R)-2-(3,4-dichlorophenylcarbamoyl)-1,2,3,4-tetrahydro-9H-pyrido[3,4-b]indol-3-yl]carbonyl-L-isoleucyl-L-aspartic acid amide] the IC50 was 0.77 µM. In the case of `NC(=O)[C@H](CC(=O)O)NC(=O)C1(NC(=O)[C@H]2Cc3c([nH]c4ccccc34)CN2C(=O)Nc2ccc(Cl)c(Cl)c2)CCCC1` [Example 26], the IC50 is reported as 1.3 µM. `CC(C)C[C@H](NC(=O)[C@H]1Cc2c([nH]c3ccccc23)CN1C(=O)Nc1ccc(Cl)c(Cl)c1)C(=O)NCCC(=O)O` [Example 27] gave an IC50 of 0.41 µM.
